Laboratory results published in patent US20100226994A1, “GRANULE, TABLET AND METHODS FOR PRODUCING THE SAME” (priority 2007, published 2010).

Assay: Heat storage of granule or raw substance on a tray at 70° C., residual ratio of functional substance
Assay type: physicochemical

Row | residual ratio of lipoic acid (on a tray at 70° C. for 24 hours) [%] | residual ratio of vitamin E (on a tray at 70° C. for 72 hours) [%] | Compound
1 | 40.5 |  | O=C(O)CCCCC1CCSS1 (centres unmarked) [Comparative Example 8, Lipoic acid]
2 |  | 96.5 | Vitamin E [Comparative Example 10]
